Values of other authors as cited in patent publication US6376005B2, “Antimicrobial composition for food and beverage products” (The Procter & Gamble Company, priority 1997, dated 2002).

Tests used:
[1] = tested on: Zygosaccharomyces bailii
[2] = tested on: bacteria

Structure (SMILES)	effectiveness against yeasts such as Zygosaccharomyces bailii [1]	effectiveness against bacteria [2]
C[C@@H]1C/C=C/C=C/C=C/C=C/[C@H](O[C@@H]2O[C@H](C)[C@@H](O)[C@H](N)[C@@H]2O)C[C@@H]2O[C@](O)(C[C@@H](O)C[C@H]3O[C@@H]3/C=C/C(=O)O1)C[C@H](O)[C@H]2C(=O)O [natamycin]	particularly effective	not effective
C/C=C/C=C/C(=O)[O-].[K+] [potassium sorbate]	not effective	–
